pEC50, pIC50: −log10 of the molar value.
Key:
[1] = molecular target: T1, PxTAR1 (Plutella xylostella, UniProt A0A4D6I7S9); assay: intracellular Ca2+ assay, Cal-590 AM, confocal imaging, stable HEK-293 line; assay type: cell-based
T1 construct: gene tar1; full-length ORF, 467 residues, 52266 Da; lentiviral vector pEB-TAR1-3flag-copGFP(T2A)PURO (3flag tag, GFP co-expressed via T2A)
T1 sequence (A0A4D6I7S9 1-467): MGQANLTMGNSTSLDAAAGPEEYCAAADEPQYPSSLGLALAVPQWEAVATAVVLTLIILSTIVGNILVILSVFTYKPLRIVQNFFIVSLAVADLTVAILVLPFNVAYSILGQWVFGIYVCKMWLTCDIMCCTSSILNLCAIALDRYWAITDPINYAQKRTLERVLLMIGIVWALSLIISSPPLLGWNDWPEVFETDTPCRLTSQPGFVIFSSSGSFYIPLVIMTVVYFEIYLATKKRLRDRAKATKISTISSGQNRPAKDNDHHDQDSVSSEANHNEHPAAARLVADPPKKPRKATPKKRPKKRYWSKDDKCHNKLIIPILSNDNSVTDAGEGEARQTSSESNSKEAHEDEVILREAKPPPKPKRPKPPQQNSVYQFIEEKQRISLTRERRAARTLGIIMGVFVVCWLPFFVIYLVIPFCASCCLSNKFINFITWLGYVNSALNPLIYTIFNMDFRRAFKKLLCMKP

[2] = molecular target: T1, PxTAR1; assay: cAMP ELISA (Parameter Assay Kit), TAR1/[…] cells; assay type: cell-based

SMILES | pEC50 [1] | pIC50 [2]
CNC=Nc1ccc(C)cc1C [DPMF, N2-(2,4-Dimethylphenyl)-N1-methyformamidine] | 7.07 | 
C=C(C)[C@@H]1CC=C(C)C(=O)C1 [L(-)-carvone] | 8.94 | 
NC[C@H](O)c1ccc(O)cc1 [octopamine] |  | 4.86
NCCc1ccc(O)cc1 [tyramine] | 7.88 | 6.35

Reference: paper PMC6627746, “Pharmacological Properties of the Type 1 Tyramine Receptor in the Diamondback Moth, Plutella xylostella” (International Journal of Molecular Sciences, 2019)
